Tests used:
Experiment in all cases: Selectivity profiling, QuickScout TK Screening Panel
Format in all cases: biochemical
[1] = biological target: T1, ABL (Homo sapiens, UniProt P00519)
T1 construct: purchased Carna Biosciences
Description: (§1) The inhibitory effects of Compound 1 against 20 tyrosine kinases and 30 serine/threonine kinases were investigated using QuickScout™ TK and STK Screening Panel (Carna Biosciences, Kobe Japan). […] The results reveal that Compound 1 inhibits TNIK_N more potently (IC50; 9 nM) than the other 50 kinases.

[2] = biological target: T2, SRC (Homo sapiens, UniProt P12931)
T2 construct: purchased Carna Biosciences
Description: as §1

[3] = biological target: T3, TYRO3 (Homo sapiens, UniProt Q06418)
T3 construct: purchased Carna Biosciences
Description: as §1

[4] = biological target: T4, LCK (Homo sapiens, UniProt P06239)
T4 construct: purchased Carna Biosciences
Description: as §1

[5] = biological target: T5, JAK3 (Homo sapiens, UniProt P52333)
T5 construct: purchased Carna Biosciences
T5 sequence (P52333 whole entry): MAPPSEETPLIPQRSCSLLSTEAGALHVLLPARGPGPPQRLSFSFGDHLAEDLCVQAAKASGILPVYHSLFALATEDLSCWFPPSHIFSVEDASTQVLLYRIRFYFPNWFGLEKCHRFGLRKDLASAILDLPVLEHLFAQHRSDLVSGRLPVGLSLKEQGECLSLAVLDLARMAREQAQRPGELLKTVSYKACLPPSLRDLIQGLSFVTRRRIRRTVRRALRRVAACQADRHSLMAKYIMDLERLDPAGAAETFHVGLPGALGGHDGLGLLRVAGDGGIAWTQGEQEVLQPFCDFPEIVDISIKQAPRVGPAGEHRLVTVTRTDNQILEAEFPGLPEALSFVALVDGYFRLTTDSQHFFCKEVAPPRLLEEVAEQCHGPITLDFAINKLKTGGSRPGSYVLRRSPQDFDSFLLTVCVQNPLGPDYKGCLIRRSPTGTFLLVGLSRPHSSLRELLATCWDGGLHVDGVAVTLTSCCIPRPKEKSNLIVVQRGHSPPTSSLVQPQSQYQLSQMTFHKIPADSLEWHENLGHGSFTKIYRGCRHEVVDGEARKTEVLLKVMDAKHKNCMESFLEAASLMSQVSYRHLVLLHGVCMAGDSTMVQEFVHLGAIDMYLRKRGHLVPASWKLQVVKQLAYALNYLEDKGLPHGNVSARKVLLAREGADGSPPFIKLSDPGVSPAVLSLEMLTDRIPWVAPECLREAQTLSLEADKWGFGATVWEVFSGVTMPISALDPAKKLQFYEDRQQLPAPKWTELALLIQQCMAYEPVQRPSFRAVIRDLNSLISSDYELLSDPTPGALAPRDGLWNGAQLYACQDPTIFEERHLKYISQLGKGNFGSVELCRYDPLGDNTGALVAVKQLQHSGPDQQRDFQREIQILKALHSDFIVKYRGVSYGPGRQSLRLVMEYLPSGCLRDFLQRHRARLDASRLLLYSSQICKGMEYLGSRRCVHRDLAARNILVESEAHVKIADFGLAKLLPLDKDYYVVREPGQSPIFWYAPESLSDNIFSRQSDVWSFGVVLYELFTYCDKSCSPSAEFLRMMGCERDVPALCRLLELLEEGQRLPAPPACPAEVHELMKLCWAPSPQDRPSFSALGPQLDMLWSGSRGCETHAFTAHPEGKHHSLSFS
Description: as §1

[6] = biological target: T6, PDGFRa (Homo sapiens, UniProt P16234)
T6 construct: purchased Carna Biosciences
Description: as §1

[7] = biological target: T7, SYK (Homo sapiens, UniProt P43405)
T7 construct: purchased Carna Biosciences
Description: as §1

[8] = biological target: T8, EphA2 (Homo sapiens, UniProt P29317)
T8 construct: purchased Carna Biosciences
Description: as §1

[9] = biological target: T9, FGFR1 (Homo sapiens, UniProt P11362)
T9 construct: purchased Carna Biosciences
Description: as §1

[10] = biological target: T10, KDR (Homo sapiens, UniProt P35968)
T10 construct: purchased Carna Biosciences
Description: as §1

[11] = biological target: T11, PYK2 (Homo sapiens, UniProt Q14289)
T11 construct: purchased Carna Biosciences
T11 sequence (Q14289 whole entry): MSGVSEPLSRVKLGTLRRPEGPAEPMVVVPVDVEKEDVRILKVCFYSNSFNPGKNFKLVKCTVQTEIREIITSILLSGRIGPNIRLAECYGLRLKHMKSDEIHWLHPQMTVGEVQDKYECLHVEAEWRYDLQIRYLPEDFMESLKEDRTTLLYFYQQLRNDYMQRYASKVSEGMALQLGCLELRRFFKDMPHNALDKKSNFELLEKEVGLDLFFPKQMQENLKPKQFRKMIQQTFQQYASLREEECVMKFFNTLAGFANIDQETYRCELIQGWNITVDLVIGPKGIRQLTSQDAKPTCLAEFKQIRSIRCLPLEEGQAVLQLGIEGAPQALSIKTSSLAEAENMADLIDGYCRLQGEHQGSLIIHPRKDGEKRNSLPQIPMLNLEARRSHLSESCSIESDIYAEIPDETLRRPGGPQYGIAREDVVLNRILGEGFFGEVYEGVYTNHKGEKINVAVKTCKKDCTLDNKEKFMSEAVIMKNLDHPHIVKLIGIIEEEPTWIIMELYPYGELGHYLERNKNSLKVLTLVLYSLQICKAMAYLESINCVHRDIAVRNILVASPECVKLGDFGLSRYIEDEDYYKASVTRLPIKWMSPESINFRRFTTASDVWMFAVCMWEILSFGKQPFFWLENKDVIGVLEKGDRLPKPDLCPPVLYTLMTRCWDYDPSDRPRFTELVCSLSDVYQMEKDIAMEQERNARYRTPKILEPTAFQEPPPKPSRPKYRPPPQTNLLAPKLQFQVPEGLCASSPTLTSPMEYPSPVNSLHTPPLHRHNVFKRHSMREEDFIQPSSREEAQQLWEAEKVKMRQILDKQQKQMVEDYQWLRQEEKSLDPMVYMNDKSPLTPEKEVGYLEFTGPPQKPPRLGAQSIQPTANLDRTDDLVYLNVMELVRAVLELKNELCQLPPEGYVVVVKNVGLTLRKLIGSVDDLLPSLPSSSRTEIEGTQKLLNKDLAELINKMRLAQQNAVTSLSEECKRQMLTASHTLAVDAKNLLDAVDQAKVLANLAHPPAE
Description: as §1

[12] = biological target: T12, TRKA (Homo sapiens, UniProt P04629)
T12 construct: purchased Carna Biosciences
Description: as §1

[13] = biological target: T13, IGF1R (Homo sapiens, UniProt P08069)
T13 construct: purchased Carna Biosciences
Description: as §1

[14] = biological target: T14, CSK (Homo sapiens, UniProt P41240)
T14 construct: purchased Carna Biosciences
Description: as §1

[15] = biological target: T15, EphB4 (Homo sapiens, UniProt P54760)
T15 construct: purchased Carna Biosciences
T15 sequence (P54760 16-987): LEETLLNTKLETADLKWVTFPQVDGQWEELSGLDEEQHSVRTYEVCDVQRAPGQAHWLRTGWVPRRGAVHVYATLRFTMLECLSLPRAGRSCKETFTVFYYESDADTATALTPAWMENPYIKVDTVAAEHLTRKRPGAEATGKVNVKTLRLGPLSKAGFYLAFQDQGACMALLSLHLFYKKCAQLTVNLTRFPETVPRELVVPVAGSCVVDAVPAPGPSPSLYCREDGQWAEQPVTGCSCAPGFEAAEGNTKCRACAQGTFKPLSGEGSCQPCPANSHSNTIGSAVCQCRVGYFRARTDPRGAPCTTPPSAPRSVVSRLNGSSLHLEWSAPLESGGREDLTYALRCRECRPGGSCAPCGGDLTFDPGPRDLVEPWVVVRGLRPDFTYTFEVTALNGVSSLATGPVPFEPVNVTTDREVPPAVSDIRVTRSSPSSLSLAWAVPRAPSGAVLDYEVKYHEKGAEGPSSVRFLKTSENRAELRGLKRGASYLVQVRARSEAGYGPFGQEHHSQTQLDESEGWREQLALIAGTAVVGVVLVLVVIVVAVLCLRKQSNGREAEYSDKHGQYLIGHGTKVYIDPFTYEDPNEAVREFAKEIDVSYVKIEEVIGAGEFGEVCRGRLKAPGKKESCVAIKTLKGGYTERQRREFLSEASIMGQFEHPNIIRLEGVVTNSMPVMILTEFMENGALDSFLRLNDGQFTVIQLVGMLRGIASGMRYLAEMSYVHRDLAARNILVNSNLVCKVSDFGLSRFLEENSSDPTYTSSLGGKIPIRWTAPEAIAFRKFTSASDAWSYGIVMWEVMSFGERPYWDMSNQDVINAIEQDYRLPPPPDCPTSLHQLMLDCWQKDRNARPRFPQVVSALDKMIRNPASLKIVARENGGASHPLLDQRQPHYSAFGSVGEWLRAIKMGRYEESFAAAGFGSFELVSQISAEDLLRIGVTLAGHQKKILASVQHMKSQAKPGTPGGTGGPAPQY
Description: as §1

[16] = biological target: T16, FLT3 (Homo sapiens, UniProt P36888)
T16 construct: purchased Carna Biosciences
Description: as §1

[17] = biological target: T17, MET (Homo sapiens, UniProt P08581)
T17 construct: purchased Carna Biosciences
Description: as §1

[18] = biological target: T18, TIE2 (Homo sapiens, UniProt Q02763)
T18 construct: purchased Carna Biosciences
T18 sequence (Q02763 23-1124): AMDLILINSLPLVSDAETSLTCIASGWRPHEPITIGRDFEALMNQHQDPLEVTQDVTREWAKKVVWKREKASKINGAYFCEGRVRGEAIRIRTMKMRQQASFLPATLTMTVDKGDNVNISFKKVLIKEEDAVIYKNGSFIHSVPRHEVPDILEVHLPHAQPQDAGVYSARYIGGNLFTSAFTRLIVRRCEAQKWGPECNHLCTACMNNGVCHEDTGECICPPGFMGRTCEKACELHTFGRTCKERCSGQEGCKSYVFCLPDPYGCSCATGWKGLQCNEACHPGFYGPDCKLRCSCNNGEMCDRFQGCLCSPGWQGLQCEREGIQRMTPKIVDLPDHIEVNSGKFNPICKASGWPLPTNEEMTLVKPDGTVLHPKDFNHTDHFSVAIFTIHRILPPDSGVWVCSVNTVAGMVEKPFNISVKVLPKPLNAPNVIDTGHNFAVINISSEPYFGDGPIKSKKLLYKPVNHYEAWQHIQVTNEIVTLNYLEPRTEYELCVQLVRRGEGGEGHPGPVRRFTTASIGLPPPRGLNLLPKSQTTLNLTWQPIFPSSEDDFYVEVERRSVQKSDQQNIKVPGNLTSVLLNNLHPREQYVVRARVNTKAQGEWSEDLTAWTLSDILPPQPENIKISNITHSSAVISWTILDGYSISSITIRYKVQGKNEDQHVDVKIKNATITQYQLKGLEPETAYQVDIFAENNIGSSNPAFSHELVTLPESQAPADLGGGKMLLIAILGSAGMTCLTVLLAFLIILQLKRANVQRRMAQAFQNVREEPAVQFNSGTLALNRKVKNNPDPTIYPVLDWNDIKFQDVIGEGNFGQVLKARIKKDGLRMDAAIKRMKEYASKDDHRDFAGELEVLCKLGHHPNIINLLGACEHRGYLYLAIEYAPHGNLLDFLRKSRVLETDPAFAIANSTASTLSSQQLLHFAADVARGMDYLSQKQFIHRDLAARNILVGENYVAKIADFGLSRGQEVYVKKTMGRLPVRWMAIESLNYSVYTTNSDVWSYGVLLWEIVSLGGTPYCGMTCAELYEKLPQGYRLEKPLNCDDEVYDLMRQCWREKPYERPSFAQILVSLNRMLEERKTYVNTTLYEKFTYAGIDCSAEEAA
Description: as §1

[19] = biological target: T19, ITK (Homo sapiens, UniProt Q08881)
T19 construct: purchased Carna Biosciences
T19 sequence (Q08881 whole entry): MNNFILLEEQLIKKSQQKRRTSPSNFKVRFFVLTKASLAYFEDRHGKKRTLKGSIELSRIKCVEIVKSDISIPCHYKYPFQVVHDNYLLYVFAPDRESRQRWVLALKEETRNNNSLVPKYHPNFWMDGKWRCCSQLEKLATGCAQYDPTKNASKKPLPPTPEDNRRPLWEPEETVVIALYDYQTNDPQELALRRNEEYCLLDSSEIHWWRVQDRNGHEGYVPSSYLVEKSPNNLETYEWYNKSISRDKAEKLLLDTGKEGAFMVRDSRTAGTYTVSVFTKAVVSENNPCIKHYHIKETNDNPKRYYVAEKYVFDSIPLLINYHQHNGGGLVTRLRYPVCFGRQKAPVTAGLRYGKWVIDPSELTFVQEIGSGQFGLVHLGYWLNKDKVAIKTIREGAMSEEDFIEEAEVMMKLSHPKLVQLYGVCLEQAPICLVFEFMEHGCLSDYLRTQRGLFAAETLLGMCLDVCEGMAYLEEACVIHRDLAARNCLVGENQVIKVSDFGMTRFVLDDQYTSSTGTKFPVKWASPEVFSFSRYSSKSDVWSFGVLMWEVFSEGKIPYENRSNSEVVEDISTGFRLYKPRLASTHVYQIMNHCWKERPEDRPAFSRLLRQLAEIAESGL
Description: as §1

IC50 [1]: 290 nM
IC50 [2]: > 300 nM
IC50 [3]: > 300 nM
IC50 [4]: > 300 nM
IC50 [5]: > 300 nM
IC50 [6]: 150 nM
IC50 [7]: > 300 nM
IC50 [8]: > 300 nM
IC50 [9]: > 300 nM
IC50 [10]: 59 nM
IC50 [11]: > 300 nM
IC50 [12]: > 300 nM
IC50 [13]: > 300 nM
IC50 [14]: > 300 nM
IC50 [15]: > 300 nM
IC50 [16]: 95 nM
IC50 [17]: > 300 nM
IC50 [18]: > 300 nM
IC50 [19]: > 300 nM
SMILES: CC(=O)Nc1ccc(C(=O)Nc2sc(Nc3ccccc3)nc2C(N)=O)cc1 [Compound 1, 5-(4-acetamidobenzamido)-2-(phenylamino)thiazole-4-carboxamide]
